Assay results from publication PMC10721329, “Quisinostat is a brain-penetrant radiosensitizer in glioblastoma” (JCI Insight, 2023).
Values joined by “and” are separate entries in the source; they are usually repeats but may differ in a detail not shown here. Equal values may be shown once.

Tests used:
[1] = test system: BT145 cells; experiment: γ-H2AX foci immunofluorescence; format: cell-based, human; conditions: BT 145, 75 nM QST, single nuclei
Method: (§1) To test the DNA-damaging effects of QST in GBM cells, we treated 2 independent GSC lines with QST for 72 hours at the IC50 and analyzed changes in the levels of phosphorylated histone H2AX (γ-H2AX), a marker for DNA double-strand breaks (DSBs) ([27]). […]
(§2) anti-GAPDH (1:1000, Cell Signaling Technologies, 97166), rabbit anti-cleaved poly (ADP-ribose) polymerase Asp 214 (1:1000, Cell Signaling, 9541), rabbit anti-BDNF (1:1000, Abcam, ab108319) and mouse anti- β-actin (1:1000, Bio-Rad, MCA5775GA). Membranes were probed with fluorophore-conjugated anti-mouse or anti-rabbit secondary antibodies (1:10,000; ThermoFisher Scientific). Western blots were developed using the LI-COR Odyssey CLx imaging system (LI-COR) and quantitated using the Image Studio Lite software. All Western blots are representative images from a minimum of 3 biological replicates.
(§3) Cells were grown as adherent cultures on laminin -coated glass coverslips (Thermo Fisher Scientific) in GSC media. Twenty-four hours after plating, the cells were treated with QST or DMSO diluted in GSC media. Seventy-two hours after treatment, cells were fixed with 4% paraformaldehyde for 13 minutes at room temperature. Cells were washed with phosphate-buffered saline (PBS) and subsequently permeabilized and blocked with 5% normal goat serum (Sigma Aldrich) and 0.2% Triton X -100 in PBS (blocking solution) for 30 minutes at room temperature. […]
(§4) SuperFrost Plus microscope slides using Fluoroshield Mounting Medium containing DAPI (Abcam). […] The fraction of Ki67- and Cleaved Caspase 3– positive cells were counted from 5 independent images from each condition. The mean and standard deviation were calculated from 3 biological replicates for all control and QST-treated […]
(§5) For cell cycle analysis following short -term DMSO or QST treatment in GSC cultures, approximately 1 million cells were harvested, washed in cold 1× PBS once, and fixed with 3–4 mL of ice cold 70% ethanol, added dropwise while vortexing. […] Data from all the samples were obtained using a Fortessa flow cytometer (BD Biosciences) and analyzed using the FlowJo software (TreeStar). […]

[2] = test system: GB126 cells; experiment: γ-H2AX foci immunofluorescence; format: cell-based, human; conditions: 86 nM QST, value per individual nucleus, image series of replicate experiments
Method: as §1, §2, §3, §4, §5

[3] = Stability in human plasma at 37°C; format: in vitro ADME; conditions: for %stability in human plasma, mean / stability in human plasma, [QST], % of control: 37 C; for %stability in human plasma, mean: mean of 3; for stability in human plasma, [QST], % of control: single data points
Method: (§6) Hydroxamic acid–based compounds have been reported to display poor stability and high plasma clearance due to the presence of arylesterases and carboxylesterases in rodent blood ([34]). Therefore, we measured the stability of QST in mouse plasma and brain to determine whether drug degradation occurred during our sample preparations and equilibrium dialyses for the determination of unbound drug level (performed at 37°C). […] QST degradation was also observed in mouse brain homogenate (Figure 6B). However, perfusion of mice before brain collection prevented rapid drug degradation in the brain matrix. […] Degradation of QST can also be constrained if plasma and brain samples are processed at 4°C (Supplemental Figure 4A). All subsequent sample preparations were therefore performed on ice-cold baths to avoid degradation of QST in our PK analyses. […] The observed stability is probably due to the absence of esterases in human matrices, which are responsible for degradation of QST ([34]). Because we employed QST in several in vitro studies (Figures 1–4), the stability of the molecule was also tested in the cell media used to culture GSCs (neurobasal medium; see Methods).
(§7) Stability Study in Mouse Plasma, Mouse Brain, Human Plasma, Human Brain, and Neural […]
(§8) The stability of QST was determined in BALB/c mouse plasma, male nude athymic perfused and nonperfused mouse brain homogenate (1:9 w/v of PBS; pH 7.4), human brain (obtained from VRL Eurofins) homogenate (1:4 w/v of PBS; pH 7.4), pooled human plasma (Innovative Research), and neurobasal media. QST stock solutions (1 mM) were prepared in acetonitrile, subsequently diluted in a 40% methanol mixture, and added t o the matrices to make final concentrations of 100 nM or 10 nM. Then 50 or 30 µL of either plasma or brain homogenate containing QST were aliquoted into 1.5-mL microcentrifuge tubes (Eppendorf) and were incubated at either 4 °C or 37 °C for 0, 2, 4, 6, 12, or 24 hours (n = 3 at each time point). […]
(§9) Plasma and brain […]
(§10) homogenate samples were stored at −80 °C until LC-MS/MS analysis. […]

[4] = Stability in human brain homogenate at 37°C; format: in vitro ADME; conditions: for %stability in human brain homogenate, mean / stability in human brain homogenate, [QST], % of control: 37 C; for stability in human brain homogenate, [QST], % of control: single data points
Method: as §6, §7, §8, §9, §10

Cn1cc(CNCC2CCN(c3ncc(C(=O)NO)cn3)CC2)c2ccccc21 [QST, quisinostat]
Number of foci/ Nucleus (ƴH2AX) [1]: 12
ƴH2AX Number of foci/ Nucleus ([1]; replicates n=1 to n=3): 12
Number of foci/ Nucleus (γH2AX) [2]: 12
%stability in human plasma, mean ([3]; 10 nM, 0 hrs): 100.0 % of control
stability in human plasma, [QST], % of control ([3]; 10 nM, 0 hrs): 96.2 % of control and 101.9 % of control
stability in human plasma, [QST], % of control ([3]; 10 nM, 2 hrs): 98.7 % of control and 101.4 % of control and 99.6 % of control
%stability in human plasma, mean ([3]; 10 nM, 6 hrs): 99.5 % of control
stability in human plasma, [QST], % of control ([3]; 10 nM, 6 hrs): 100.4 % of control and 102 % of control and 96.1 % of control
%stability in human plasma, mean ([3]; 10 nM, 24 hrs): 97.7 % of control
stability in human plasma, [QST], % of control ([3]; 10 nM, 24 hrs): 93.7 % of control and 94.6 % of control and 104.9 % of control
%stability in human plasma, mean ([3]; 100 nM, 0 hrs): 100.0 % of control
stability in human plasma, [QST], % of control ([3]; 100 nM, 0 hrs): 96.3 % of control and 100 % of control and 103.7 % of control
%stability in human plasma, mean ([3]; 100 nM, 2 hrs): 102.1 % of control
stability in human plasma, [QST], % of control ([3]; 100 nM, 2 hrs): 105.4 % of control and 102.2 % of control and 98.8 % of control
%stability in human plasma, mean ([3]; 100 nM, 6 hrs): 103.6 % of control
stability in human plasma, [QST], % of control ([3]; 100 nM, 6 hrs): 105.9 % of control and 102.8 % of control and 102 % of control
%stability in human plasma, mean ([3]; 100 nM, 24 hrs): 99.0 % of control
stability in human plasma, [QST], % of control ([3]; 100 nM, 24 hrs): 101.6 % of control and 97 % of control and 98.2 % of control
stability in human plasma ([3]; 37°C): completely stable
%stability in human brain homogenate, mean ([4]; 10 nM, 0 hrs): 100 % of control
stability in human brain homogenate, [QST], % of control ([4]; 10 nM, 0 hrs): 101.7 % of control and 98.5 % of control and 98.3 % of control
%stability in human brain homogenate, mean ([4]; 10 nM, 2 hrs): 90.6 % of control
stability in human brain homogenate, [QST], % of control ([4]; 10 nM, 2 hrs): 87.5 % of control and 89.1 % of control and 95.1 % of control
%stability in human brain homogenate, mean ([4]; 10 nM, 6 hrs): 94.8 % of control
stability in human brain homogenate, [QST], % of control ([4]; 10 nM, 6 hrs): 95.6 % of control and 93.7 % of control and 94.9 % of control
%stability in human brain homogenate, mean ([4]; 10 nM, 24 hrs): 82.9 % of control
stability in human brain homogenate, [QST], % of control ([4]; 10 nM, 24 hrs): 83.1 % of control and 81 % of control and 84.6 % of control
%stability in human brain homogenate, mean ([4]; 100 nM, 0 hrs): 100 % of control
stability in human brain homogenate, [QST], % of control ([4]; 100 nM, 0 hrs): 98.8 % of control and 102.5 % of control and 98.7 % of control
%stability in human brain homogenate, mean ([4]; 100 nM, 2 hrs): 89.0 % of control
stability in human brain homogenate, [QST], % of control ([4]; 100 nM, 2 hrs): 90.7 % of control and 89.5 % of control and 86.8 % of control
%stability in human brain homogenate, mean ([4]; 100 nM, 6 hrs): 92.7 % of control
stability in human brain homogenate, [QST], % of control ([4]; 100 nM, 6 hrs): 93.9 % of control and 90.6 % of control and 93.7 % of control
%stability in human brain homogenate, mean ([4]; 100 nM, 24 hrs): 84.4 % of control
stability in human brain homogenate, [QST], % of control ([4]; 100 nM, 24 hrs): 81.6 % of control and 84.2 % of control and 87.3 % of control
stability in human brain homogenate ([4]; 37°C): completely stable
